Values quoted from earlier work, collected in paper PMC8923172 (Antimicrobial Agents and Chemotherapy, 2022).

System: LPS-induced ALI
Conditions: 2 mg/kg; cited from earlier work

SMILES: C[C@@H]1C[C@H]2[C@@H]3CCC4=CC(=O)C=C[C@]4(C)[C@@]3(F)[C@@H](O)C[C@]2(C)[C@@]1(O)C(=O)CO [dexamethasone]
- decrease in IFN-γ in bronchoalveolar lavage fluid: ~43%
- decrease in IL-6 in bronchoalveolar lavage fluid: approximately 26%
- decrease in IP-10 (CXCL10) in bronchoalveolar lavage fluid: ~50%
